In patent US8957074B2 (Novartis AG, priority 2010, dated 2015):
Like-named read-outs stand apart in the source and are kept apart here.

How the values were obtained:
CDK4/cyclin D1 = CDK4/cyclin D1 (Homo sapiens (Human), UniProt P11802); experiment: CDK4/cyclin D1 enzymatic activity assay (TR-FRET, phosphorylation of pRb at Ser780); assay type: biochemical; conditions: 0.3 nM CDK4/cyclin D1, 150 nM biotin-pRb (773-924), 3 μM ATP, 60 min at 22° C.; read-out: Biochemical CDK4 enzyme IC50
Summary of the method: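 Phosphorylation at pRb Ser780, detected by TR-FRET, gave IC50s and kinetics. Enzyme: baculovirus/Sf21-expressed human CDK4/cyclin D1. ATP at 3 μM initiated the reaction; EDTA (pH 8.0) stopped it after 60 min at 22° C.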

[1] = system: phosphorylation of pRb at the Ser780 site in JeKo-1 mantle cell lymphoma cells; experiment: CDK4 cellular assay: ELISA of pRb phosphorylation at Ser780 in JeKo-1 cells; assay type: cell-based
CDK1/cyclin B = CDK1/cyclin B (Homo sapiens (Human), UniProt P06493); experiment: CDK1/cyclin B enzymatic activity assay (IMAP-FP); assay type: biochemical; conditions: […] CDK1/cyclin B, 100 nM Tamra Histone-H1 peptide, 20 μM ATP, 120 min at room temperature; read-out: Biochemical CDK1 enzyme IC50
Excerpt: CDK1/Cyclin B Enzymatic Activity Assay
A 384-well microtiter IMAP-FP™ (Molecular Devices Trade Mark Technology) endpoint assay was used for CDK1/cyclin B kinase activity measurements. The same assay was used for IC50 determination of small molecule inhibitors.

[2] = Homo sapiens, JeKo-1 cells, p-pRb % inhibition adjusted with total pRb levels, read-out: Normalized cellular ppRb inhibition IC50
[3] = Homo sapiens, JeKo-1 cells, p-pRb Ser780 ELISA, non-normalized, read-out: Cellular ppRb inhibition IC50
[4] = Homo sapiens, JeKo-1, JeKo-1 cells, p-pRb % inhibition adjusted with total pRb levels, read-out: Normalized cellular ppRb inhibition IC50
[5] = Homo sapiens, JeKo-1, JeKo-1 cells, p-pRb Ser780 ELISA, non-normalized, read-out: Cellular ppRb inhibition IC50

Chain of CDK1/cyclin B (P06493 whole entry, species assumed): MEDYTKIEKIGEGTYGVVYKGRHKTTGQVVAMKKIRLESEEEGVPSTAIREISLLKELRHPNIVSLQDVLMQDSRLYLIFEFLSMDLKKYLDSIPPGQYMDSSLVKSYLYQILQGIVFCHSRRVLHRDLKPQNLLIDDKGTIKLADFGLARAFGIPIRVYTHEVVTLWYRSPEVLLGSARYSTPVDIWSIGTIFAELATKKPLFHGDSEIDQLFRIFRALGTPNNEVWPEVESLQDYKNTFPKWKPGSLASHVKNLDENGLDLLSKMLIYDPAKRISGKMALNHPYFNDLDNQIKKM
Chain of CDK1/cyclin B (P14635 whole entry partner, species assumed): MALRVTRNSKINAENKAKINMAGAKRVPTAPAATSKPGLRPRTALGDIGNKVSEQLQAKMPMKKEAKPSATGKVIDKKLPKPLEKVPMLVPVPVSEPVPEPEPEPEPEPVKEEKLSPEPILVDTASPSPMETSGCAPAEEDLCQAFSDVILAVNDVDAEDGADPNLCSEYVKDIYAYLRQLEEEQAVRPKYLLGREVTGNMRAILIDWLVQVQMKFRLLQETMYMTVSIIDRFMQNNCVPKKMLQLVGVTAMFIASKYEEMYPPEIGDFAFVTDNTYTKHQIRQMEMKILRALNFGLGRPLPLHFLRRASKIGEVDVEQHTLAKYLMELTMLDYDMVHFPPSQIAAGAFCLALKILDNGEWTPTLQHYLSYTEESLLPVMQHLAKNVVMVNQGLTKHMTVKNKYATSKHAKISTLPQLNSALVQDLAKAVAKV
Chain of CDK4/cyclin D1 (P11802 whole entry): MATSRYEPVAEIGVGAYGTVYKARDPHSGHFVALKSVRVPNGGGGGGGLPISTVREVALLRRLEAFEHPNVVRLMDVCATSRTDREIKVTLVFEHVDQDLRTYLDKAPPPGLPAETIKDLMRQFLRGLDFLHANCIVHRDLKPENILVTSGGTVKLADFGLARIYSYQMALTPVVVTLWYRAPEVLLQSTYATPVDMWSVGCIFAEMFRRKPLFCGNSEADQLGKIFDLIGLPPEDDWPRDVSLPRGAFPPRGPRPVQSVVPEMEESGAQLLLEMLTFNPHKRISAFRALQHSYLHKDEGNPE
Chain of CDK4/cyclin D1 (P24385 whole entry partner): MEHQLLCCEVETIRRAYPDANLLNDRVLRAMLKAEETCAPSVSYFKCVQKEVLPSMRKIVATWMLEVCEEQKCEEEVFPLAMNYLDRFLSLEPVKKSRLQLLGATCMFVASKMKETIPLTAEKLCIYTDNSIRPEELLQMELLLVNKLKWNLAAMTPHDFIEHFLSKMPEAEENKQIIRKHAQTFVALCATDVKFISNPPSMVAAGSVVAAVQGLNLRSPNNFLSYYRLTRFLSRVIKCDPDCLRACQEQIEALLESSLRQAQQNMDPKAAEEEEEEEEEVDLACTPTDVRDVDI

Row | SMILES | IC50 (CDK4/cyclin D1) [nM] | IC50 [1, 2] [nM] | IC50 [1, 3] [nM] | IC50 (CDK1/cyclin B) [nM] | IC50 [1, 4] [nM] | IC50 [1, 5] [nM] | IC50 ([1]; JeKo-1 cells, p-pRb % inhibition adjusted with total pRb levels, read-out: Normalized cellular ppRb inhibition IC50) [nM] | IC50 ([1]; JeKo-1 cells, p-pRb Ser780 ELISA, non-normalized, read-out: Cellular ppRb inhibition IC50) [nM] | IC50 ([1]; Homo sapiens, JeKo-1, read-out: Cellular ppRb inhibition IC50) [nM] | IC50 ([1]; Homo sapiens, JeKo-1, read-out: Normalized cellular ppRb inhibition IC50) [nM]
1 | CN(C)C(=O)c1cc2cnc(Nc3ccc(N4C[C@@H]5CNC[C@@H]5C4=O)cn3)nc2n1C1CCCCCC1 [Example 82, 7-cycloheptyl-N,N-dimethyl-2-(5-((3aS,6aR)-1-oxohexahydropyrrolo[3,4-c]pyrrol-2(1H)-yl)pyridin-2-ylamino)-7H-pyrrolo[2,3-d]pyrimidine-6-carboxamide] | 4 | 9 | 5 | 2660 |  |  |  |  |  | 
2 | CN(C)C(=O)c1cc2cnc(Nc3ccc(C(=O)N4CC5CC(C4)N(CC(F)(F)F)C5)cn3)nc2n1C1CCCC1 (centres unmarked) [Example 12, 7-Cyclopentyl-2-{5-[6-(2,2,2-trifluoro-ethyl)-3,6-diaza-bicyclo[3.2.1]octane-3-carbonyl]-pyridin-2-ylamino}-7H-pyrrolo[2,3-d]pyrimidine-6-carboxylic acid dimethylamide] | 49 | 724 | 255 | > 15000 |  |  |  |  |  | 
3 | CN(C)C(=O)c1cc2cnc(Nc3ccc(N4C[C@H]5CC[C@@H](CC4=O)N5)cn3)nc2n1C1CCC1 [Example 136, 7-Cyclobutyl-2-[5-((1R,6S)-4-oxo-3,9-diaza-bicyclo[4.2.1]non-3-yl)-pyridin-2-ylamino]-7H-pyrrolo[2,3-d]pyrimidine-6-carboxylic acid dimethylamide] | 54 |  |  | > 15000 | 218 | 77 |  |  |  | 
4 | CN(C)C(=O)c1cc2cnc(Nc3ccc(C(=O)N4[C@@H]5CC[C@H]4C[C@H](O)C5)cn3)nc2n1C1CCCC1 [Example 43, 7-Cyclopentyl-2-[5-((1S,3S,5R)-3-hydroxy-8-aza-bicyclo[3.2.1]octane-8-carbonyl)-pyridin-2-ylamino]-7H-pyrrolo[2,3-d]pyrimidine-6-carboxylic acid dimethylamide] | 176 to 198 |  |  | > 15000 |  |  | 469 to 1280 | 461 to 745 |  | 
5 | CN(C)C(=O)c1cc2cnc(Nc3ccc(N4C[C@@H]5CNC[C@@H]5CC4=O)cn3)nc2n1C1CCCC1 (stereo in doubt) [Example 92, 7-cyclopentyl-N,N-dimethyl-2-(5-(cis-6-oxotetrahydro-1H-pyrrolo[3,4-c]pyridin-5(6H,7H,7aH)-yl)pyridin-2-ylamino)-7H-pyrrolo[2,3-d]pyrimidine-6-carboxamide] | 5 to 7 |  |  | 25100 |  |  |  |  | 5 to 20 | 19 to 38
6 | CN(C)C(=O)c1cc2cnc(Nc3ccc(N4C[C@H]5CNC[C@H]5C4=O)cn3)nc2n1C1CCCC1 [Example 86, 7-cyclopentyl-N,N-dimethyl-2-(5-((3aR,6aS)-1-oxohexahydropyrrolo[3,4-c]pyrrol-2(1H)-yl)pyridin-2-ylamino)-7H-pyrrolo[2,3-d]pyrimidine-6-carboxamide] | 5 to 6 |  |  | 20600 | 13 to 14 | 8 to 17 |  |  |  | 
7 | CN(C)C(=O)c1cc2cnc(Nc3ccc(N4C[C@@H]5CNC[C@@H]5CC4=O)cn3)nc2n1C1CCCCCC1 (stereo in doubt) [Example 89, 7-cycloheptyl-N,N-dimethyl-2-(5-(cis-6-oxotetrahydro-1H-pyrrolo[3,4-c]pyridin-5(6H,7H,7aH)-yl)pyridin-2-ylamino)-7H-pyrrolo[2,3-d]pyrimidine-6-carboxamide] | 3 |  |  | 6480 | 4 to 15 | 5 to 7 |  |  |  | 
8 | CN(C)C(=O)c1cc2cnc(Nc3ccc(C(=O)N4CC5CCC(C4)N5)cn3)nc2n1C1CCCCCC1 [Example 4, 2-(5-(3,8-diazabicyclo[3.2.1]octane-3-carbonyl)pyridin-2-ylamino)-7-cycloheptyl-N,N-dimethyl-7H-pyrrolo[2,3-d]pyrimidine-6-carboxamide] | 4 |  |  | 7060 | 10 | 9 |  |  |  | 
9 | CCOC(=O)N1C2CCC1CN(C(=O)c1ccc(Nc3ncc4cc(C(=O)N(C)C)n(C5CCCC5)c4n3)nc1)C2 [Example 64, 3-[6-(7-Cyclopentyl-6-dimethylcarbamoyl-7H-pyrrolo[2,3-d]pyrimidin-2-ylamino)-pyridine-3-carbonyl]-3,8-diaza-bicyclo[3.2.1]octane-8-carboxylic acid ethyl ester] | 72 to 179 | 771 to 2200 | 323 to 466 | > 15000 |  |  |  |  |  | 
10 | CN(C)C(=O)c1cc2cnc(Nc3ccc(N4C[C@H]5CC[C@@H](CC4=O)N5C)cn3)nc2n1C1CCCC1 [Example 140, 7-cyclopentyl-N,N-dimethyl-2-(5-((1R,6S)-9-methyl-4-oxo-3,9-diazabicyclo[4.2.1]nonan-3-yl)pyridin-2-ylamino)-7H-pyrrolo[2,3-d]pyrimidine-6-carboxamide] | 5 to 6 |  |  | > 15000 | 11 to 18 | 5 to 9 |  |  |  | 
11 | CN(C)C(=O)c1cc2cnc(Nc3ccc(C(=O)N4CC5CCC(C4)N5)cn3)nc2n1C1CCCCC1 [Example 66, 7-Cyclohexyl-2-[5-(3,8-diaza-bicyclo[3.2.1]octane-3-carbonyl)-pyridin-2-ylamino]-7H-pyrrolo[2,3-d]pyrimidine-6-carboxylic acid dimethylamide] | 4 to 7 |  |  | > 15000 | 41 | 38 |  |  |  | 
12 | CN(C)C(=O)c1cc2cnc(Nc3ccc(N4CC5CCC(CC4=O)N5)cn3)nc2n1C1CCCCC1 (centres unmarked) [Example 131, 7-cyclohexyl-N,N-dimethyl-2-(5-(4-oxo-3,9-diazabicyclo[4.2.1]nonan-3-yl)pyridin-2-ylamino)-7H-pyrrolo[2,3-d]pyrimidine-6-carboxamide] | 4 |  |  | > 15000 | 24 | 14 |  |  |  | 
13 | CSCC[C@@H](N)C(=O)N1C2CCC1CN(C(=O)c1ccc(Nc3ncc4cc(C(=O)N(C)C)n(C5CCCC5)c4n3)nc1)C2 [Example 59, 2-{5-[8-((R)-2-Amino-4-methylsulfanyl-butyryl)-3,8-diaza-bicyclo[3.2.1]octane-3-carbonyl]-pyridin-2-ylamino}-7-cyclopentyl-7H-pyrrolo[2,3-d]pyrimidine-6-carboxylic acid dimethylamide] | 8 | > 10000 | 2500 | > 15000 |  |  |  |  |  | 
14 | CN(C)C(=O)c1cc2cnc(Nc3ccc(N4CCN5CCCCC5C4=O)cn3)nc2n1C1CCCC1 (centres unmarked) [Example 99, 7-Cyclopentyl-2-[5-(1-oxo-octahydro-pyrido[1,2-a]pyrazin-2-yl)-pyridin-2-ylamino]-7H-pyrrolo[2,3-d]pyrimidine-6-carboxylic acid dimethylamide] | 71 |  |  | > 15000 | 618 | 463 |  |  |  | 
